# Results published in US20060252683A1, “Preparation of a peptide compound (SYRAPRO-2000) and its use for the activation of protein phosphatase-2A1 enzyme” (priority 2005, published 2006).
# Experiments:
# [1] = Dissolution of purified peptide in water; format: physicochemical
# Protocol: SYRAPRO-2000, a peptide compound activator of protein phosphatase-2A1 was prepared by chemical synthesis on an automated Solid Phase Peptide Synthesizer. Following synthesis, it was cleaved and purified by reverse phase HPLC on a C18 column. The structure of SYRAPRO-2000 is: […]. The molecular mass of SYRAPRO-2000 was determined by MALDI ToF MS. The purified material, a white solid was readily dissolved in and reconstituted in water at ˜1-2 mg/ml. For its use as an in vitro activator of protein phosphatase-2A1, it is dissolved in the assay buffer which consisted of 0.02 ml of enzyme solution in 50 mM Imidazole-Cl pH 7.2, 0.2 mM EGTA, 0.1% (v/v) 2-mercaptoethanol and 1 mg/ml bovine serum albumin. For its use on intact cells, it is dissolved in the culture medium.
# [2] = tested on: HTB-3 cells; experiment: Cell viability (tryphan blue) and cell death of HTB-3 cells; format: cell-based, human; conditions: 2000 nM, 8 days
# Protocol: (§1) Panel A, HTB-3 cells (a human glioblastoma cell line) were grown in DMEM and 5% (v/v) fetal bovine serum. Cells (10^6 cells per ml) were treated (+) or not (−) with 2000 nM SYRAPRO-2000. Cell viability was then determined by counting the cells following tryphan blue staining after 4, 8 and 12 days of incubation. Panel B, Following treatment with or without SYRAPRO-2000 for 8 days, HTB-3 cells grown on slides were analyzed by phase contrast microscopy (Row A), by fluorescence microscopy following staining with FITC labeled annexin V (apoptotic cell death) (Row B) or propidium iodide (oncolytic cell death) on a Cells were analyzed on a Zeiss Axioplan 2 imaging universal microscope (Thornwood, N.Y.). Phase contrast images and Green (FITC labeled annexin V) and red (propidium iodide) fluorescence images were obtained. […]
# (§2) HTB-3 cells are grown in DMEM supplemented with 5% (v/v) fetal bovine serum and antibiotics and treated or not with 2 μM SYRAPRO-2000 for 8 days. Following treatment with SYRAPRO-2000, cell viability are then determined by counting the cells following tryphan blue staining. […] Following treatment with SYRAPRO-2000, cells grown on slides by were analyzed by phase contrast microscopy and fluorescence microscopy following staining with FITC labeled annexin V (an indicator of apoptotic cell death) or propidium iodide (an indicator of oncolytic or necrotic cell death). […]
# [3] = as above; format: cell-based, human; conditions: human, HTB-3 cells (glioblastoma cell line), 2000 nM, 8 days of incubation, read-out: treated cells non viable (tryphan blue staining)
# Protocol: as §1, §2
smiles,measurement,setting,value
CC[C@H](C)[C@H](NC(=O)[C@H](CCCNC(=N)N)NC(=O)[C@H](CO)NC(=O)[C@H](Cc1c[nH]cn1)NC(=O)[C@H](CCCNC(=N)N)NC(=O)[C@H](CS)NC(=O)CNC(=O)[C@@H](NC(=O)[C@H](CCCNC(=N)N)NC(=O)[C@H](Cc1ccccc1)NC(=O)[C@@H](N)Cc1c[nH]cn1)[C@@H](C)CC)C(=O)NCC(=O)N[C@H](C(=O)N[C@H](C(=O)N[C@@H](CCCNC(=N)N)C(=O)N[C@@H](CCC(N)=O)C(=O)N[C@@H](CCCNC(=N)N)C(=O)N[C@@H](CCCNC(=N)N)C(=O)N[C@@H](C)C(=O)N[C@@H](CCCNC(=N)N)C(=O)N[C@@H](CC(N)=O)C(=O)NCC(=O)N[C@@H](C)C(=O)N[C@@H](CO)C(=O)N[C@@H](CCCNC(=N)N)C(=O)N[C@@H](CO)C(=O)O)[C@@H](C)O)C(C)C [SYRAPRO-2000],readily dissolved and reconstituted in water,[1],1 to 2 mg/mL
same,mode of cell death (FITC-annexin V and propidium iodide staining),[2],apoptosis and oncolysis
same,"cytotoxicity at 8 days, 2 µM",[3],~50%
